Test results from PMC7463651, “Phase I/Ib Study of Tenalisib (RP6530), a Dual PI3K δ/γ Inhibitor in Patients with Relapsed/Refractory T-Cell Lymphoma” (Cancers, 2020).
Where “and” joins values, the source holds several entries; their conditions need not be identical. Identical values can stand only once.

Tested on: patients with relapsed/refractory T Cell Lymphoma
Assay: Safety assessment (adverse events per CTCAE v4.03, DLT/MTD) in phase I/Ib study
Assay type: in vivo, human
Procedure: Protocol defined hematological or non-hematological toxicity was considered dose-limiting if it occurred during the first cycle (within the first 28 d) and was considered related to Tenalisib. Hematological DLTs was defined as Grade 4 anemia; Grade 4 neutropenia for >7 days, or Grade ≥3 febrile neutropenia with fever >38.5 °C [101 °F]; Grade 4 thrombocytopenia for >7 days, or Grade ≥3 thrombocytopenia associated with Grade >2 bleeding.
Safety assessment included adverse event (AE) and serious adverse events (SAE) as per Common Terminology Criteria for Adverse Events (CTCAE), Version 4.03. During dose escalation, safety assessments were performed at weekly intervals during Cycle 1 and Cycle 2 and at two weekly intervals during Cycle 3 and 4. After completion of Cycle 4, safety assessments were performed on Day 1 of each subsequent cycle. In dose expansion phase, all safety assessments were performed on Day 1 of each cycle.

[1] = Relationship-all, Dose Expansion (N = 39)
[2] = Relationship-all, Total (N = 58)

CC[C@H](Nc1ncnc2[nH]cnc12)c1oc2ccccc2c(=O)c1-c1cccc(F)c1 [Tenalisib]
Pyrexia: patients with event [1]: 9 (23.1%) n (%) | Rash: count of events [1]: 6 | Rash: patients with event [1]: 3 (7.7%) n (%) | Tachycardia: count of events [1]: 3 | Tachycardia: patients with event [1]: 3 (7.7%) n (%) | Vomiting: count of events [1]: 6 | Vomiting: patients with event [1]: 5 (12.8%) n (%) | Abdominal pain: count of events [2]: 9 | Abdominal pain: patients with event [2]: 8 (13.8%) n (%) | Alanine aminotransferase increased: count of events [2]: 33 | Alanine aminotransferase increased: patients with event [2]: 20 (34.5%) n (%) | Anemia: count of events [2]: 16 | Anemia: patients with event [2]: 9 (15.5%) n (%) | Aspartate aminotransferase increased: count of events [2]: 37 | Aspartate aminotransferase increased: patients with event [2]: 21 (36.2%) n (%) | Blood creatinine increased: count of events [2]: 7 | Blood creatinine increased: patients with event [2]: 7 (12.1%) n (%) | Blood thyroid stimulating hormone increased: count of events [2]: 7 | Blood thyroid stimulating hormone increased: patients with event [2]: 6 (10.3%) n (%) | Constipation: count of events [2]: 10 | Constipation: patients with event [2]: 9 (15.5%) n (%) | Cough: count of events [2]: 16 | Cough: patients with event [2]: 13 (22.4%) n (%) | Decreased appetite: count of events [2]: 13 | Decreased appetite: patients with event [2]: 12 (20.7%) n (%) | Dehydration: count of events [2]: 18 | Dehydration: patients with event [2]: 13 (22.4%) n (%) | Diarrhea: count of events [2]: 25 | Diarrhea: patients with event [2]: 19 (32.8%) n (%) | Dizziness: count of events [2]: 12 | Dizziness: patients with event [2]: 10 (17.2%) n (%) | Dry skin: count of events [2]: 8 | Dry skin: patients with event [2]: 7 (12.1%) n (%) | Dyspnea: count of events [2]: 7 | Dyspnea: patients with event [2]: 7 (12.1%) n (%) | Fatigue: count of events [2]: 27 | Fatigue: patients with event [2]: 26 (45%) n (%) and 26 (44.8%) n (%) | Gamma-glutamyl transferase increased: count of events [2]: 11 | Gamma-glutamyl transferase increased: patients with event [2]: 8 (13.8%) n (%) | Grade 3/4 Alanine aminotransferase increased: count of events [2]: 12 | Grade 3/4 Alanine aminotransferase increased: patients with event [2]: 11 (19.0%) n (%) | Grade 3/4 Anemia: count of events [2]: 8 | Grade 3/4 Anemia: patients with event [2]: 5 (8.6%) n (%) | Grade 3/4 Aspartate aminotransferase increased: count of events [2]: 12 | Grade 3/4 Aspartate aminotransferase increased: patients with event [2]: 11 (19.0%) n (%) | Grade 3/4 Fatigue: count of events [2]: 4 | Grade 3/4 Fatigue: patients with event [2]: 3 (5.2%) n (%) | Grade 3/4 Hyponatremia: count of events [2]: 4 | Grade 3/4 Hyponatremia: patients with event [2]: 4 (6.9%) n (%) | Grade 3/4 Neutropenia: count of events [2]: 4 | Grade 3/4 Neutropenia: patients with event [2]: 4 (6.9%) n (%) | Grade 3/4 Thrombocytopenia: count of events [2]: 3 | Grade 3/4 Thrombocytopenia: patients with event [2]: 3 (5.2%) n (%) | Headache: count of events [2]: 13 | Headache: patients with event [2]: 10 (17.2%) n (%) | Hypokalemia: count of events [2]: 10 | Hypokalemia: patients with event [2]: 7 (12.1%) n (%) | Hyponatremia: count of events [2]: 9 | Hyponatremia: patients with event [2]: 8 (13.8%) n (%) | Insomnia: count of events [2]: 7 | Insomnia: patients with event [2]: 6 (10.3%) n (%) | Muscle spasms: count of events [2]: 10 | Muscle spasms: patients with event [2]: 9 (15.5%) n (%) | Nausea: count of events [2]: 16 | Nausea: patients with event [2]: 15 (25.9%) n (%) | Pruritus: count of events [2]: 10 | Pruritus: patients with event [2]: 9 (15.5%) n (%) | Psychiatric disorders: count of events [2]: 18 | Psychiatric disorders: patients with event [2]: 11 (19.0%) n (%) | Pyrexia: count of events [2]: 21 | Pyrexia: patients with event [2]: 13 (22.4%) n (%) | Rash: count of events [2]: 10 | Rash: patients with event [2]: 6 (10.3%) n (%) | Tachycardia: count of events [2]: 9 | Tachycardia: patients with event [2]: 8 (13.8%) n (%) | Vomiting: count of events [2]: 11 | Vomiting: patients with event [2]: 9 (15.5%) n (%) | Fatigue, most frequently reported TEAE (all patients): 45% | Transaminase elevations, most frequently reported related TEAE (all patients): 33% | Late onset toxicities like colitis, pneumonitis, and opportunistic infections (also in patients treated for more than six months): not seen | Alanine aminotransferase increased: count of events (human, in vivo): 13 | Alanine aminotransferase increased: patients with event (human, in vivo): 6 (31.6%) n (%) | Anemia, Grade 3 TEAE (human, in vivo): 8.6% | Anemia: count of events (human, in vivo): 1 | Anemia: patients with event (human, in vivo): 1 (5.3%) n (%) | Aspartate aminotransferase increased: count of events (human, in vivo): 15 | Aspartate aminotransferase increased: patients with event (human, in vivo): 6 (31.6%) n (%) | Blood alkaline phosphatase increased: count of events (human, in vivo): 1 | Blood alkaline phosphatase increased: patients with event (human, in vivo): 1 (5.3%) n (%) | Blood creatinine increased: patients with event (human, in vivo): 1 (5.3%) n (%) | Blood thyroid stimulating hormone increased: count of events (human, in vivo): 2 | Blood thyroid stimulating hormone increased: patients with event (human, in vivo): 2 (10.5%) n (%) | Constipation: count of events (human, in vivo): 5 | Constipation: patients with event (human, in vivo): 4 (21.1%) n (%) | Cough: count of events (human, in vivo): 7 | Cough: patients with event (human, in vivo): 6 (31.6%) n (%) | Decreased appetite: count of events (human, in vivo): 5 | Decreased appetite: patients with event (human, in vivo): 5 (26.3%) n (%) | Discontinuation due to adverse events (human, in vivo): 9% | Dry skin: count of events (human, in vivo): 2 | Dry skin: patients with event (human, in vivo): 2 (10.5%) n (%) | Dyspepsia: count of events (human, in vivo): 1 | Dyspepsia: patients with event (human, in vivo): 1 (5.3%) n (%) | Dyspnea: count of events (human, in vivo): 5 | Dyspnea: patients with event (human, in vivo): 5 (26.3%) n (%) | Erythema: count of events (human, in vivo): 1 | Erythema: patients with event (human, in vivo): 1 (5.3%) n (%) | Gamma-glutamyl transferase increased: count of events (human, in vivo): 2 | Gamma-glutamyl transferase increased: patients with event (human, in vivo): 2 (10.5%) n (%) | Gamma-glutamyltransferase increased: count of events (human, in vivo): 2 | Gamma-glutamyltransferase increased: patients with event (human, in vivo): 2 (10.5%) n (%) | Grade 3/4 Alanine aminotransferase increased: count of events (human, in vivo): 7 | Grade 3/4 Alanine aminotransferase increased: patients with event (human, in vivo): 6 (15.4%) n (%) | Grade 3/4 Anemia: count of events (human, in vivo): 6 | Grade 3/4 Anemia: patients with event (human, in vivo): 3 (7.7%) n (%) | Grade 3/4 Aspartate aminotransferase increased: count of events (human, in vivo): 8 | Grade 3/4 Aspartate aminotransferase increased: patients with event (human, in vivo): 7 (17.9%) n (%) | Grade 3/4 Fatigue: count of events (human, in vivo): 3 | Grade 3/4 Fatigue: patients with event (human, in vivo): 2 (5.1%) n (%) | Grade 3/4 Hyponatremia: count of events (human, in vivo): 2 | Grade 3/4 Hyponatremia: patients with event (human, in vivo): 2 (5.1%) n (%) | Grade 3/4 Neutropenia: count of events (human, in vivo): 2 | Grade 3/4 Neutropenia: patients with event (human, in vivo): 2 (5.1%) n (%) | Grade 3/4 Thrombocytopenia: count of events (human, in vivo): 2 | Grade 3/4 Thrombocytopenia: patients with event (human, in vivo): 2 (5.1%) n (%) | Headache: count of events (human, in vivo): 4 | Headache: patients with event (human, in vivo): 3 (15.8%) n (%) | Hypokalemia: count of events (human, in vivo): 5 | Hypokalemia: patients with event (human, in vivo): 4 (21.1%) n (%) | Hyponatremia, Grade 3 TEAE (human, in vivo): 6.9% | Hyponatremia: count of events (human, in vivo): 4 | Hyponatremia: patients with event (human, in vivo): 4 (21.1%) n (%) | Insomnia: count of events (human, in vivo): 3 | Insomnia: patients with event (human, in vivo): 3 (15.8%) n (%) | Neutropenia, Grade 3 TEAE (human, in vivo): 6.9% | Neutropenia: count of events (human, in vivo): 2 | Number of related ≥Grade 3 AEs (human, in vivo): 12 | Patients discontinued because of TEAEs (human, in vivo): 14% | Patients with SAEs (human, in vivo): 22 (38%) n (%) | Patients with at least one TEAE (human, in vivo): 57 (98%) n (%) | Patients with related AEs (human, in vivo): 18 (64%) n (%) | Patients with related Grade 4 TEAEs (human, in vivo): 5.2% | Patients with related ≥Grade 3 AEs (human, in vivo): 9 (32%) n (%) | Pruritus: count of events (human, in vivo): 5 | Pruritus: patients with event (human, in vivo): 4 (21.1%) n (%) | Psychiatric disorders: count of events (human, in vivo): 6 | Psychiatric disorders: patients with event (human, in vivo): 4 (21.1%) n (%) | Pyrexia: count of events (human, in vivo): 4 | Pyrexia: patients with event (human, in vivo): 4 (21.1%) n (%) | Rash: count of events (human, in vivo): 4 | Rash: patients with event (human, in vivo): 3 (15.8%) n (%) | SAEs gastrointestinal disorders, patients (human, in vivo): 9% | SAEs related to infections, patients (human, in vivo): 16% | Tachycardia: count of events (human, in vivo): 6 | Tachycardia: patients with event (human, in vivo): 5 (26.3%) n (%) | Transaminase elevation, related Grade ≥3 TEAE (human, in vivo): 21% | Deaths related to drug (in vivo): none of them were related to Tenalisib | Dose-limiting toxicities (DLT) (in vivo): no DLTs | Fatal outcome of related TEAEs (in vivo): None of the related TEAEs led to a fatal outcome | Grade 4 related TEAEs (in vivo): two events of ALT increase and one event of sepsis | Number of SAEs assessed to be related (in vivo): six | Number of SAEs reported (in vivo): Thirty-seven | Deaths reported in the study (seven deaths): 12%
